Key:
[1] = system: DNA; experiment: Microscale thermophoresis binding, DNA Hairpin
Procedure: MST fluorescent measurements were performed on a Monolith NT.115 system (NanoTemper Technologies) using the fluorescence of a 5′-Cy5 labeled miR-210 Hairpin RNA (5′—Cy5 […]) (SEQ ID NO: 11), a 5′-Cy5 miR-210 Mutant RNA (5′—Cy5 […]) (SEQ ID NO: 12), or a 5′ Cy5 DNA Hairpin (5′—Cy5 […]) (SEQ ID NO: 13) which were purchased from IDT with RNase-free HPLC purification and used without further purification. The RNA (5 nM) was prepared in 1×MST Buffer (8 mM Na2HPO4, 190 mM NaCl, 1 mM EDTA, and 0.05% (v/v) Tween-20) and folded by heating at 60° C. for 5 min, and slowly cooling to room temperature. Compounds (TGP-210 or TGP-210-RL) were diluted in 1×MST Buffer and then were added to a final concentration of 20 μM, followed by 1:2 dilutions in 1×MST Buffer containing 5 nM RNA. Alternatively, RNase L in 1×MST Buffer was added to a final concentration of 50 nM in addition to compound and RNA. […] Fluorescence measurements (Ex: 605-645 nm, Em: 680-685 nm) were performed at 20% LED and 80% MST power, with a Laser-On time of 30 s and Laser-Off time of 5 s. The data were analyzed by thermophoresis analysis and fitted by the quadratic binding equation in MST analysis software (NanoTemper Technologies). Dissociation constants were then determined by curve fitting using a single-site model.

[2] = system: mature miR-210; experiment: Mature miR-210 levels in hypoxic MDA-MB-231 cells by RT-qPCR; type: cell-based
Procedure: (§1) MDA-MB-231 (HTB-26; ATCC) cells were cultured in Roswell Park Memorial Institute (RPM I) 1640 media with L-glutamine & 25 mM HEPES (Corning) supplemented with 10% fetal bovine serum (FBS) (Sigma) and 1×Penicillin Streptomycin Solution (Corning). Cells cultured in normoxia were maintained at 37° C. in ambient atmosphere (˜21% O2) with 5% CO2. Cells cultured in hypoxia were maintained at 37° C., <1% O2 in a nitrogen filled hypoxic chamber (Billups-Rothenberg, Inc.), and 5% CO2. Cells were directly purchased from ATCC, but were not authenticated.
(§2) For compound treatment (TGP-210, TGP-210-RL, LNA-210, Scr-LNA), compound stocks in DMSO or water were diluted in growth medium and added to cells for 24-48 h. […]
(§3) MDA-MB-231 cells were treated in normoxic or hypoxic conditions for 24-48 h, as described above in the Experimental Model and Subject Details section. […] RNA expression levels were determined using the ΔΔCt method and normalized using 18S ribosomal RNA or U6 small nuclear RNA as housekeeping genes. […] Upon treatment with chimeric compound TGP-210-RL, relative cleavage levels were calculated according to equation 1A (Eq. 1A) in order to control for the effect of parent compound TGP-210, on pre-miR-210 expression: […]

[3] = system: pre-miR-210; experiment: pre-miR-210 levels / cleavage in hypoxic MDA-MB-231 cells by RT-qPCR; type: cell-based
Procedure: as §1, §2, §3

[4] = system: MDA-MB-231 cells; experiment: Caspase 3/7 activity in MDA-MB-231 cells; type: cell-based
Procedure: Approximately 5,000 MDA-MB-231 cells were plated into white, cell-culture treated, 96-well plates (Corning). At ˜60% confluency, cells were treated with dilutions of LNA-210, Scr-LNA, TGP-210, or TGP-210-RL and then placed under hypoxic or normoxic conditions. After 48 h, caspase 3/7 activity was measured using a Caspase-Glo 3/7 kit (Promega) according to the manufacturer's protocol. Alternatively, MDA-MB-231 cells were transfected with a plasmid overexpressing pre-miR-210 (Genecopoeia; HmiR0167-MR04) using Lipofectamine 2000 (Invitrogen). After 5 h of transfection, cells were plated into white, cell-culture treated 96-well plates (Corning) and then treated as described above. Fold change in Caspase activity was calculated by normalizing treated samples to the untreated samples after subtracting background sample values.

[5] = system: triple negative breast cancer; details: triple negative breast cancer mouse model; cited from earlier work

Selectivity window between DNA and the Dicer site in pre-miR-210 [1]: 5 fold
Kd ([1]; MST): 620 nM
Substance: Targapremir-210 [TGP-210]
Levels of mature miR-210 [2]: decreased
Cleavage of pre-miR-210 by TGP-210-RL upon addition of TGP-210 ([3]; constant TGP-210-RL, increasing amounts of TGP-210): caused a decrease in cleavage of pre-miR-210
pre-miR-210 levels ([3]; hypoxic MDA-MB-231 cells): increase
Apoptotic stimulation (caspase activity) ([4]; hypoxic MDA-MB-231 cells, 48 h, TGP-210-RL at 500 nM): similar
Apoptosis upon miR-210 overexpression ([4]; miR-210 overexpressed background): no longer stimulated apoptosis
Tumor growth [5]: inhibited tumor growth

Reference: US20210102200A1, “SMALL MOLECULE TARGETED RECRUITMENT OF A NUCLEASE TO RNA” (The Scripps Research Institute, priority 2018, published 2021)
